From ChEMBL document CHEMBL1201862, “PubChem BioAssay data set” (2004)
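Interpolation was linear, between the two tested concentrations surrounding the appropriate level; five concentrations were tested over 48 hours in 96-well plates. At the GI50, growth is halved.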 Calls of active or inactive are those of the source. Cut-off read from the data, not from the text of the source: active = GI50 up to about 1.1 µM and inactive = higher.

Experiments:
Assay in all cases: inhibition of tumour cell growth, NCI panel, 48 h
U-251 = system: U-251
TK-10 = system: TK-10
OVCAR-5 = system: OVCAR-5
HCT-116 = system: HCT-116
UACC-257 = system: UACC-257
SNB-19 = system: SNB-19
Malme-3M = system: Malme-3M
SN12C = system: SN12C
KM12 = system: KM12
SF-268 = system: SF-268
HCT-15 = system: HCT-15
OVCAR-3 = system: OVCAR-3
SK-MEL-2 = system: SK-MEL-2
M14 = system: M14
A549 = system: A549
SR = system: SR

Compound | GI50 (U-251) | GI50 (TK-10) | GI50 (OVCAR-5) | GI50 (HCT-116) | GI50 (UACC-257) | GI50 (SNB-19) | GI50 (Malme-3M) | GI50 (SN12C) | GI50 (KM12) | GI50 (SF-268) | GI50 (HCT-15) [µM] | GI50 (OVCAR-3) | GI50 (SK-MEL-2) | GI50 (M14) | GI50 (A549) | GI50 (SR)
N#Cc1c2nc3ccccc3nc2n2ccc3ccccc3c12 | > 100 µM (inactive) | > 100 µM (inactive) | > 100 µM (inactive) | 54 µM (inactive) | > 100 µM (inactive) | > 100 µM (inactive) | > 100 µM (inactive) | > 100 µM (inactive) | 32.4 µM (inactive) | > 100 µM (inactive) | > 100 | > 100 µM (inactive) | > 100 µM (inactive) | > 100 µM (inactive) | > 100 µM (inactive) | 
COc1cc2ccc(CC#N)cc2cc1OC | > 100 µM (inactive) | > 100 µM (inactive) | > 100 µM (inactive) |  | > 100 µM (inactive) | > 100 µM (inactive) | > 100 µM (inactive) | > 100 µM (inactive) | > 100 µM (inactive) | > 100 µM (inactive) |  |  | > 100 µM (inactive) |  | > 100 µM (inactive) | > 100 µM (inactive)
CCC12CCCN(Cc3ccccc3)C1c1c(n(C)c3ccccc13)C(CO)C2 (stereo not drawn) | 49.3 µM (inactive) | 64.9 µM (inactive) | 10.5 µM (inactive) | 14 µM (inactive) | 48.6 µM (inactive) | 55.5 µM (inactive) | 46.6 µM (inactive) | 42.6 µM (inactive) | 40.4 µM (inactive) | 114 µM (inactive) | 38.3 | 36.1 µM (inactive) | 55.7 µM (inactive) |  | 81.8 µM (inactive) | 25.5 µM (inactive)
c1ccc(C(c2ccccc2)c2cccnc2)cc1 | > 100 µM (inactive) | > 100 µM (inactive) | > 100 µM (inactive) | > 100 µM (inactive) | > 100 µM (inactive) | > 100 µM (inactive) | > 100 µM (inactive) | > 100 µM (inactive) | > 100 µM (inactive) | > 100 µM (inactive) | > 100 | > 100 µM (inactive) | > 100 µM (inactive) | > 100 µM (inactive) | 88.1 µM (inactive) | 
CCOC(=O)NC(=O)c1c[nH]c(=O)[nH]c1=O | > 100 µM (inactive) | > 100 µM (inactive) | > 100 µM (inactive) | > 100 µM (inactive) | > 100 µM (inactive) | > 100 µM (inactive) | > 100 µM (inactive) | > 100 µM (inactive) | > 100 µM (inactive) |  | > 100 | > 100 µM (inactive) | > 100 µM (inactive) | > 100 µM (inactive) | > 100 µM (inactive) | > 100 µM (inactive)
CC(=O)N/C(=C\c1cccc([N+](=O)[O-])c1)c1nc2ccc3c(c2[nH]1)C(=O)c1ccccc1C3=O | 45.6 µM (inactive) | > 56 µM (inactive) | > 93.3 µM (inactive) | 17.9 µM (inactive) |  | > 100 µM (inactive) | > 74.8 µM (inactive) | 21 µM (inactive) | 7.57 µM (inactive) | 13.6 µM (inactive) | 13.9 | > 100 µM (inactive) | 50.2 µM (inactive) | 70.3 µM (inactive) | 26.6 µM (inactive) | 6.97 µM (inactive)
C[Si](C)(C)C(Sc1ccccc1)(Sc1ccccc1)Sc1ccccc1 | 57.7 µM (inactive) | > 100 µM (inactive) |  | 60.3 µM (inactive) | 52.5 µM (inactive) | > 100 µM (inactive) |  | > 100 µM (inactive) | 60.3 µM (inactive) | 76.6 µM (inactive) | 50.5 |  | 25.9 µM (inactive) |  | 39.3 µM (inactive) | 35.7 µM (inactive)
O=[N+]([O-])c1ccc(NC2OCC(O)C(O)C2O)cc1 (stereo not drawn) | > 100 µM (inactive) | > 100 µM (inactive) |  |  | > 100 µM (inactive) | > 100 µM (inactive) | > 100 µM (inactive) | > 100 µM (inactive) | > 100 µM (inactive) | > 100 µM (inactive) | > 100 | > 100 µM (inactive) | > 100 µM (inactive) | > 100 µM (inactive) | > 100 µM (inactive) | > 100 µM (inactive)
CC(=O)NC1=C(NCc2ccc(Cl)cc2)C(=O)c2ccccc2C1=O | 6.7 µM (inactive) | 8.24 µM (inactive) |  | 3.12 µM (inactive) | 6.17 µM (inactive) | 22.6 µM (inactive) | 9.4 µM (inactive) | 13.9 µM (inactive) | 8.17 µM (inactive) | 16.5 µM (inactive) | 5.57 | 6.4 µM (inactive) | 5.62 µM (inactive) | 7.01 µM (inactive) | 12.5 µM (inactive) | 8 µM (inactive)
Cc1cccc(NC(=O)c2c(N)[n+]([O-])c3ccccc3[n+]2[O-])c1 | 1.78 µM (inactive) |  | 26.7 µM (inactive) | 7.69 µM (inactive) | 11.3 µM (inactive) | 15.8 µM (inactive) | 12.7 µM (inactive) | 4.85 µM (inactive) | 14.9 µM (inactive) | 7.28 µM (inactive) |  | 15.6 µM (inactive) | 7.76 µM (inactive) | 12 µM (inactive) | 16.1 µM (inactive) | 10.9 µM (inactive)
CNC(=O)OCc1c(CO)nc(SC)n1C | > 100 µM (inactive) |  | > 100 µM (inactive) | > 100 µM (inactive) | > 100 µM (inactive) | > 100 µM (inactive) | > 100 µM (inactive) | > 100 µM (inactive) | > 100 µM (inactive) | > 100 µM (inactive) | > 100 | > 100 µM (inactive) | > 100 µM (inactive) |  | > 100 µM (inactive) | 
Cc1ccc(-c2cc(-c3ccccc3)c(C#N)c(=O)n2C2OC(CO)C(O)C(O)C2O)cc1 (stereo not drawn) | > 100 µM (inactive) | > 100 µM (inactive) | > 100 µM (inactive) | > 100 µM (inactive) | > 100 µM (inactive) | > 100 µM (inactive) | > 100 µM (inactive) | > 100 µM (inactive) | > 100 µM (inactive) | > 100 µM (inactive) | > 100 | > 100 µM (inactive) |  | > 100 µM (inactive) | > 100 µM (inactive) | 
O=C(CC1(O)C(=O)Nc2c(Cl)cc(Cl)cc21)c1ccc2ccccc2c1 (stereo not drawn) | 6.92 µM (inactive) | 14.1 µM (inactive) | 16.6 µM (inactive) |  | 12.6 µM (inactive) | 11.4 µM (inactive) | 6.53 µM (inactive) | 10.4 µM (inactive) | 5.92 µM (inactive) | 12.2 µM (inactive) | 3.62 | 6.18 µM (inactive) | 2.48 µM (inactive) | 4.79 µM (inactive) | 5.2 µM (inactive) | 
CCOC(=O)C1(C)CCC(C(C(=O)O)C(=O)O)CC1=O (stereo not drawn) | > 100 µM (inactive) | > 100 µM (inactive) | > 100 µM (inactive) | > 100 µM (inactive) | > 100 µM (inactive) | > 100 µM (inactive) | > 100 µM (inactive) | > 100 µM (inactive) | > 100 µM (inactive) | > 100 µM (inactive) | > 100 | > 100 µM (inactive) |  | > 100 µM (inactive) | > 100 µM (inactive) | > 100 µM (inactive)
